Data taken from the kinase profiling compilation of Christmann-Franck et al. (2016).

Assays:
Assay in all cases: KINOMEscan competition binding
Conditions in all cases: compound 10.0 µM
CAMKK1 (human) = CAMKK1 (human) (UniProt Q8N5S9)
CDK16 (human) = CDK16 (human) (UniProt Q00536)
CHUK (human) = CHUK (human) (UniProt O15111)
CLK1 (human) = CLK1 (human) (UniProt P49759)
CLK3 (human) = CLK3 (human) (UniProt P49761)
CSNK1E (human) = CSNK1E (human) (UniProt P49674)
CSNK1G3 (human) = CSNK1G3 (human) (UniProt Q9Y6M4)
DAPK2 (human) = DAPK2 (human) (UniProt Q9UIK4)
DAPK3 (human) = DAPK3 (human) (UniProt O43293)
DMPK (human) = DMPK (human) (UniProt Q09013)
[1] = test system: EGFR (human), P00533 [747-751 del / S ins]
[2] = test system: EGFR (human), P00533 [G719S]
[3] = test system: FLT3 (human), P36888 [D835H]
[4] = test system: FLT3 (human), P36888 [ITD]
[5] = test system: FLT3 (human), P36888 [K663Q]
[6] = test system: FLT3 (human), P36888 [N841I]
HIPK1 (human) = HIPK1 (human) (UniProt Q86Z02)
[7] = target: JAK1 JH2 pseudokinase (human) (UniProt P23458)
[8] = target: JAK3 JH1 catalytic (human) (UniProt P52333)
[9] = test system: KIT (human), P10721 [D816V]
[10] = test system: KIT (human), P10721 [V559D/T670I]
MAP2K4 (human) = MAP2K4 (human) (UniProt P45985)
MAP3K5 (human) = MAP3K5 (human) (UniProt Q99683)
MAP4K4 (human) = MAP4K4 (human) (UniProt O95819)
MYLK (human) = MYLK (human) (UniProt Q15746)
MYLK4 (human) = MYLK4 (human) (UniProt Q86YV6)
PDGFRB (human) = PDGFRB (human) (UniProt P09619)
PIK3CG (human) = PIK3CG (human) (UniProt P48736)
PIP4K2B (human) = PIP4K2B (human) (UniProt P78356)
PIP5K1A (human) = PIP5K1A (human) (UniProt Q99755)
PRKD1 (human) = PRKD1 (human) (UniProt Q15139)
PRKD3 (human) = PRKD3 (human) (UniProt O94806)
RIOK1 (human) = RIOK1 (human) (UniProt Q9BRS2)
RIPK4 (human) = RIPK4 (human) (UniProt P57078)
RPS6KA1 KD2 (human) = RPS6KA1 KD2 (human) (UniProt Q15418)
RPS6KA2 KD2 (human) = RPS6KA2 KD2 (human) (UniProt Q15349)
RPS6KA5 KD2 (human) = RPS6KA5 KD2 (human) (UniProt O75582)
STK17A (human) = STK17A (human) (UniProt Q9UEE5)
STK17B (human) = STK17B (human) (UniProt O94768)
STK33 (human) = STK33 (human) (UniProt Q9BYT3)
TAOK1 (human) = TAOK1 (human) (UniProt Q7L7X3)
[11] = target: TYK2 JH2 pseudokinase (human) (UniProt P29597)

JAK1 JH2 pseudokinase (human), sequence (P23458 whole entry, looked up): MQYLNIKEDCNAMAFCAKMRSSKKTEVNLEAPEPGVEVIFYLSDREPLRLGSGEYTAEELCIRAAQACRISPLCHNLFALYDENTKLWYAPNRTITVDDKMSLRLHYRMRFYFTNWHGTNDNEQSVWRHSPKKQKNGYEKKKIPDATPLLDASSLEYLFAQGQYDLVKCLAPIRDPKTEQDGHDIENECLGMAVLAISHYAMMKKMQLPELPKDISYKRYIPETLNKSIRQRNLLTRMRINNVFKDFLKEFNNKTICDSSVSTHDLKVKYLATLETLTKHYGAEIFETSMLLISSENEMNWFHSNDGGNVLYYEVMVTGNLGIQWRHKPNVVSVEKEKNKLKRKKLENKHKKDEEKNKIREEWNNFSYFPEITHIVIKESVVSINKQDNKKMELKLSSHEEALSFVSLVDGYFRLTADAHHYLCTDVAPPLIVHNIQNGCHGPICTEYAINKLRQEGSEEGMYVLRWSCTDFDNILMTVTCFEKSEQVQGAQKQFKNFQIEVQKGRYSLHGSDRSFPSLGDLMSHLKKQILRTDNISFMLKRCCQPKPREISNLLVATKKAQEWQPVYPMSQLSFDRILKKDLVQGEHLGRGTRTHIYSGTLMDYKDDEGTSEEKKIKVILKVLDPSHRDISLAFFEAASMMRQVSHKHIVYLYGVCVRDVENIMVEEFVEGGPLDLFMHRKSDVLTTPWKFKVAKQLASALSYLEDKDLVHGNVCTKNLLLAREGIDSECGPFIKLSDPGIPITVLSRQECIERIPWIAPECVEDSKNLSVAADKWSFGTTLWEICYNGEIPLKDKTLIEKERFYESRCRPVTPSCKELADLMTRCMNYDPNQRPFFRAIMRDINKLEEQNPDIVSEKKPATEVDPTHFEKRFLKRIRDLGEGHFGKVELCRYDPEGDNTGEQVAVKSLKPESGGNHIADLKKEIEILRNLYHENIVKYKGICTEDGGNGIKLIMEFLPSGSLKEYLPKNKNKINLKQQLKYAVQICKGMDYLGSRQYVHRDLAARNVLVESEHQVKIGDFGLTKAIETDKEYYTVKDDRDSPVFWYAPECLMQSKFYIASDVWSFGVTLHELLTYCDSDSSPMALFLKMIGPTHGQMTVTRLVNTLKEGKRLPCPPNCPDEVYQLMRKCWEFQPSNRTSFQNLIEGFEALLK
RPS6KA2 KD2 (human), sequence (Q15349 whole entry, looked up): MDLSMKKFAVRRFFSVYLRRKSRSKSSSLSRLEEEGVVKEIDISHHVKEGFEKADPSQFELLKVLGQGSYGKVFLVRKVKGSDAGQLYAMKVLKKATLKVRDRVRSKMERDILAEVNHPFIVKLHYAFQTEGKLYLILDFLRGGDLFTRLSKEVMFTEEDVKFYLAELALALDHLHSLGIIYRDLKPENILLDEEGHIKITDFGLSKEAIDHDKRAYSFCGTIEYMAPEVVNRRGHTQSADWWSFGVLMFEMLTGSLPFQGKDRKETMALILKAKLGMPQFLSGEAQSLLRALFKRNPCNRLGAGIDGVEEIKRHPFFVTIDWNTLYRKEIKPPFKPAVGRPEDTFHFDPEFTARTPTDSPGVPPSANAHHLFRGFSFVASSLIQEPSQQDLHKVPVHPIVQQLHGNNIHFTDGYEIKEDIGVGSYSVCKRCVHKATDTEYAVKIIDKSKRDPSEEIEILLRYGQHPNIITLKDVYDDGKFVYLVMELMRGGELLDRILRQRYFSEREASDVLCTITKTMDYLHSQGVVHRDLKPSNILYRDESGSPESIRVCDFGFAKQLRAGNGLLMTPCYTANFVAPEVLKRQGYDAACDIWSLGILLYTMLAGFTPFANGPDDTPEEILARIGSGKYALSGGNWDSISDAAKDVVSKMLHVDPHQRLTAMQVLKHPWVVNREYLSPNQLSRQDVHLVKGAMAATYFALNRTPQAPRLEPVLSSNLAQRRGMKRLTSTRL
RPS6KA1 KD2 (human), sequence (Q15418 whole entry, looked up): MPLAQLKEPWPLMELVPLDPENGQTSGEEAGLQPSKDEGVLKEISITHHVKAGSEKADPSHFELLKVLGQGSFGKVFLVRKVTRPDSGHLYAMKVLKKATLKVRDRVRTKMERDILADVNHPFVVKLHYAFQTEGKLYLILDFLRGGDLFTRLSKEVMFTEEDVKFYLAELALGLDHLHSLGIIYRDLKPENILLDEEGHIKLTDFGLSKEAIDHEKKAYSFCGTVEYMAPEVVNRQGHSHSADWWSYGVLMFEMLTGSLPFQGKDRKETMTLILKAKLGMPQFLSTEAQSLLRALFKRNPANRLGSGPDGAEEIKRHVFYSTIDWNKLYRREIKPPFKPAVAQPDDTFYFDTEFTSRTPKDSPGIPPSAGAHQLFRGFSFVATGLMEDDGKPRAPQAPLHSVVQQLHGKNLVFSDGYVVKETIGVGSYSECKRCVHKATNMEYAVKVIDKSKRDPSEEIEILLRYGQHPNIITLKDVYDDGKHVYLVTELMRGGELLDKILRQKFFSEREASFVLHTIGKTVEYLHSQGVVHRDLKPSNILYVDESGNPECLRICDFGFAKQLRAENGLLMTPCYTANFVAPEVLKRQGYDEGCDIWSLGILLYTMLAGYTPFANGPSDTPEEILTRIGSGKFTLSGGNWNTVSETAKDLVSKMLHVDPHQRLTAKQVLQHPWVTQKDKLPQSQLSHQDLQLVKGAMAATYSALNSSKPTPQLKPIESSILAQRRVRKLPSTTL
KIT (human), P10721 [V559D/T670I], sequence (P10721 whole entry V559D/T670I, looked up): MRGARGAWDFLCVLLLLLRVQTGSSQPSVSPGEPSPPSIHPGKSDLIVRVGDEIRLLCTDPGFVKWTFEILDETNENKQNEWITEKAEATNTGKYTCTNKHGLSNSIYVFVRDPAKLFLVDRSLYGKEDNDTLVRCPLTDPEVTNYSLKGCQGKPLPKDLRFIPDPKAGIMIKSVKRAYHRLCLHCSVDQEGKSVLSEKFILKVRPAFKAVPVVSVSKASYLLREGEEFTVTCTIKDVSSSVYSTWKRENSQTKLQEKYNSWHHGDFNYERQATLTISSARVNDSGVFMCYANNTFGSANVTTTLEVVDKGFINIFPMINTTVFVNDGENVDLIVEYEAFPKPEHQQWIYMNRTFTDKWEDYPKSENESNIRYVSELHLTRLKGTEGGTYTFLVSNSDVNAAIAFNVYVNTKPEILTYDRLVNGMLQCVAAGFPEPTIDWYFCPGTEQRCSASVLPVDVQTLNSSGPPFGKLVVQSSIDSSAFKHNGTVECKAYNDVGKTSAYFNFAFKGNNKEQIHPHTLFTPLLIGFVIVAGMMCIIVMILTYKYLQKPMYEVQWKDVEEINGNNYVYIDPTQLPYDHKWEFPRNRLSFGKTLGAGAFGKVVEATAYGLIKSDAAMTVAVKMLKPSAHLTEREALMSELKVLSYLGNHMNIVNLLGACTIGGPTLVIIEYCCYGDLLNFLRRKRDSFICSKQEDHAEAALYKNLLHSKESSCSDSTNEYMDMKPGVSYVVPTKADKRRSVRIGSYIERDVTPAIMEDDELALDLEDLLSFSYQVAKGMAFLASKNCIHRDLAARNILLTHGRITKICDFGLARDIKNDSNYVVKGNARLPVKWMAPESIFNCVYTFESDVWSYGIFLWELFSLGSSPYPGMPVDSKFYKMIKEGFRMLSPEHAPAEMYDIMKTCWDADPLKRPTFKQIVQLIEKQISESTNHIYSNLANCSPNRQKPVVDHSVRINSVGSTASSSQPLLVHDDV
PDGFRB (human), sequence (P09619 whole entry, looked up): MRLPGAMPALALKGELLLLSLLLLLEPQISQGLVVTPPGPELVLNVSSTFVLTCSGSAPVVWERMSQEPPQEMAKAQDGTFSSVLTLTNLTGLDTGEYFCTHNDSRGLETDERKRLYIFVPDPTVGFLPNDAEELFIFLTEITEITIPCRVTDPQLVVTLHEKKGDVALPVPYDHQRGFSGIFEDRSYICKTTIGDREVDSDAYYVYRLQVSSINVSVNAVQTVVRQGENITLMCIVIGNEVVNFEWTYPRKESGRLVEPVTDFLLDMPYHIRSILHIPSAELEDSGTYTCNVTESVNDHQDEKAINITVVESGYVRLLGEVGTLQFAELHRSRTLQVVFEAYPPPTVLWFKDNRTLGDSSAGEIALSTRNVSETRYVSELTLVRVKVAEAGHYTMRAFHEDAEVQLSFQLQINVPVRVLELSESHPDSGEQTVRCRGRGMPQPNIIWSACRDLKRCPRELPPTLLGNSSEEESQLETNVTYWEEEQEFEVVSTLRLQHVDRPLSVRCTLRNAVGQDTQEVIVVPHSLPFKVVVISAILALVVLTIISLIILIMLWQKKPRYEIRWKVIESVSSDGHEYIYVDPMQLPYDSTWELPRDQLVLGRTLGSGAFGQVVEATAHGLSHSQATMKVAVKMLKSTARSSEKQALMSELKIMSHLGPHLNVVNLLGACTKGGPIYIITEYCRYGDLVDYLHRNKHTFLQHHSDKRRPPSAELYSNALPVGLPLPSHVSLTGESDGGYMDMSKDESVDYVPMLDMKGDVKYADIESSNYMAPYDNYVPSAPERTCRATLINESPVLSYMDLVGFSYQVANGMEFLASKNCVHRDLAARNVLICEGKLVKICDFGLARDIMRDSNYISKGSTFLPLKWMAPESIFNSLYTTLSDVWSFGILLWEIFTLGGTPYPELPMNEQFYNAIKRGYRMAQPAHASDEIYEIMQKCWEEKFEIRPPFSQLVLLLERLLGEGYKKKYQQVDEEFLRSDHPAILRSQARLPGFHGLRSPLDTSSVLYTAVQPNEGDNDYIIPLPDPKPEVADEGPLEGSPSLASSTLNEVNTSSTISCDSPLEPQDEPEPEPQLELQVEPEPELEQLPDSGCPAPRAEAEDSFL
MAP2K4 (human), sequence (P45985 whole entry, looked up): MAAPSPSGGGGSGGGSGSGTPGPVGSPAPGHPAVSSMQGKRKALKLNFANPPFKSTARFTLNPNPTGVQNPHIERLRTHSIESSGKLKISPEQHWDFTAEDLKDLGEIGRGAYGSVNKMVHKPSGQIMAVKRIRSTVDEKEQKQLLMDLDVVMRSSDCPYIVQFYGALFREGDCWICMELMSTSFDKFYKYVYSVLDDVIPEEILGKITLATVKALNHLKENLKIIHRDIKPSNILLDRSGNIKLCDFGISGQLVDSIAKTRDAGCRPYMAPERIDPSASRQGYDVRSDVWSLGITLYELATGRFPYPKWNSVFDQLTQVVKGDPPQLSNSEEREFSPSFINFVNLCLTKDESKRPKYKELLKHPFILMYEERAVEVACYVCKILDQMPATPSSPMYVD

Compound: CN1CCN(c2ccc(C(=O)Nc3ncc4c(n3)N(C)c3ccccc3C(=O)N4C)cc2)CC1
- kinase still bound, per cent of control (CAMKK1 (human)): 100%
- kinase still bound, per cent of control (CDK16 (human)): 100%
- kinase still bound, per cent of control (CHUK (human)): 83%
- kinase still bound, per cent of control (CLK1 (human)): 100%
- kinase still bound, per cent of control (CLK3 (human)): 100%
- kinase still bound, per cent of control (CSNK1E (human)): 89%
- kinase still bound, per cent of control (CSNK1G3 (human)): 100%
- kinase still bound, per cent of control (DAPK2 (human)): 100%
- kinase still bound, per cent of control (DAPK3 (human)): 100%
- kinase still bound, per cent of control (DMPK (human)): 100%
- kinase still bound, per cent of control [1]: 86%
- kinase still bound, per cent of control [2]: 95%
- kinase still bound, per cent of control [3]: 100%
- kinase still bound, per cent of control [4]: 100%
- kinase still bound, per cent of control [5]: 100%
- kinase still bound, per cent of control [6]: 78%
- kinase still bound, per cent of control (HIPK1 (human)): 100%
- kinase still bound, per cent of control [7]: 100%
- kinase still bound, per cent of control [8]: 100%
- kinase still bound, per cent of control [9]: 100%
- kinase still bound, per cent of control [10]: 75%
- kinase still bound, per cent of control (MAP2K4 (human)): 86%
- kinase still bound, per cent of control (MAP3K5 (human)): 94%
- kinase still bound, per cent of control (MAP4K4 (human)): 100%
- kinase still bound, per cent of control (MYLK (human)): 92%
- kinase still bound, per cent of control (MYLK4 (human)): 100%
- kinase still bound, per cent of control (PDGFRB (human)): 80%
- kinase still bound, per cent of control (PIK3CG (human)): 70%
- kinase still bound, per cent of control (PIP4K2B (human)): 100%
- kinase still bound, per cent of control (PIP5K1A (human)): 99%
- kinase still bound, per cent of control (PRKD1 (human)): 100%
- kinase still bound, per cent of control (PRKD3 (human)): 90%
- kinase still bound, per cent of control (RIOK1 (human)): 80%
- kinase still bound, per cent of control (RIPK4 (human)): 96%
- kinase still bound, per cent of control (RPS6KA1 KD2 (human)): 94%
- kinase still bound, per cent of control (RPS6KA2 KD2 (human)): 64%
- kinase still bound, per cent of control (RPS6KA5 KD2 (human)): 100%
- kinase still bound, per cent of control (STK17A (human)): 100%
- kinase still bound, per cent of control (STK17B (human)): 100%
- kinase still bound, per cent of control (STK33 (human)): 100%
- kinase still bound, per cent of control (TAOK1 (human)): 75%
- kinase still bound, per cent of control [11]: 61%

Compound: COc1cc(N2CCN(C)CC2)ccc1Nc1ncc2c(n1)N(C)c1sccc1C(=O)N2C
- kinase still bound, per cent of control (CAMKK1 (human)): 57%
- kinase still bound, per cent of control (CDK16 (human)): 97%
- kinase still bound, per cent of control (CHUK (human)): 46%
- kinase still bound, per cent of control (CLK1 (human)): 56%
- kinase still bound, per cent of control (CLK3 (human)): 93%
- kinase still bound, per cent of control (CSNK1E (human)): 91%
- kinase still bound, per cent of control (CSNK1G3 (human)): 82%
- kinase still bound, per cent of control (DAPK2 (human)): 50%
- kinase still bound, per cent of control (DAPK3 (human)): 42%
- kinase still bound, per cent of control (DMPK (human)): 100%
- kinase still bound, per cent of control [1]: 66%
- kinase still bound, per cent of control [2]: 72%
- kinase still bound, per cent of control [3]: 80%
- kinase still bound, per cent of control [4]: 99%
- kinase still bound, per cent of control [5]: 93%
- kinase still bound, per cent of control [6]: 78%
- kinase still bound, per cent of control (HIPK1 (human)): 67%
- kinase still bound, per cent of control [7]: 78%
- kinase still bound, per cent of control [8]: 100%
- kinase still bound, per cent of control [9]: 100%
- kinase still bound, per cent of control [10]: 82%
- kinase still bound, per cent of control (MAP2K4 (human)): 71%
- kinase still bound, per cent of control (MAP3K5 (human)): 74%
- kinase still bound, per cent of control (MAP4K4 (human)): 99%
- kinase still bound, per cent of control (MYLK (human)): 17%
- kinase still bound, per cent of control (MYLK4 (human)): 100%
- kinase still bound, per cent of control (PDGFRB (human)): 51%
- kinase still bound, per cent of control (PIK3CG (human)): 73%
- kinase still bound, per cent of control (PIP4K2B (human)): 89%
- kinase still bound, per cent of control (PIP5K1A (human)): 65%
- kinase still bound, per cent of control (PRKD1 (human)): 12%
- kinase still bound, per cent of control (PRKD3 (human)): 5.8%
- kinase still bound, per cent of control (RIOK1 (human)): 71%
- kinase still bound, per cent of control (RIPK4 (human)): 95%
- kinase still bound, per cent of control (RPS6KA1 KD2 (human)): 24%
- kinase still bound, per cent of control (RPS6KA2 KD2 (human)): 15%
- kinase still bound, per cent of control (RPS6KA5 KD2 (human)): 57%
- kinase still bound, per cent of control (STK17A (human)): 96%
- kinase still bound, per cent of control (STK17B (human)): 100%
- kinase still bound, per cent of control (STK33 (human)): 1.2%
- kinase still bound, per cent of control (TAOK1 (human)): 18%
- kinase still bound, per cent of control [11]: 43%
